Earlier results on 1 molecule are cited in patent US7442671B2, “O-phenylphenol/alkoxylated amine wood protection compositions” (Contechem Inc., priority 2004, dated 2008).

On to `Oc1ccccc1-c1ccccc1` [O-phenylphenol, o-phenylphenol], for which the solubility in water result is “only slightly soluble in water”.
